Tests used:
[1] = system: M. abscessus isolates from murine lung homogenates; assay: MIC analysis of select bacterial isolates from murine lung homogenates; type: cell-based; details: isolates from treated mouse lungs
[2] = system: M. abscessus from lung homogenates; assay: Resistance plating of treated mouse lung homogenates on agar with 1 μg/ml BisEDT; type: cell-based; details: mice treated with BisEDT for 28 days
Procedure: Lung homogenates from the M. abscessus […] infection were thawed from frozen at 37° C. for 2 hours. To reduce the effect of the Dey-Engley deactivation buffer, mouse homogenates were diluted 1:10 in water before replating samples onto 7H10 agar plates containing 1 μg/ml BisEDT (MIC level). Once plated samples were incubated at 37° C. over 3 days and plate colonies were counted to determine CFUs of resistance.
Colony forming units were compared from the initial plating with no BisEDT in the agar plates; to replating on agar plates containing 1 μg/mL BisEDT.

[3] = system: CF patient strain 00133 in THP-1 macrophages; assay: Mycobacterial survival (CFU) in infected THP-1 macrophages; type: cell-based, M. avium; details: amikacin-resistant CF patient strain 00133; each of the BisEDT formulations; 4 and 7 days
Procedure: (§1) THP-1 macrophages were differentiated with 50 ng/ml PMA for 24 hours, followed by 24 hours in media prior to infection. Differentiated THP-1 macrophages were either infected with M. avium strains or M. abscessus strains for 1 hour with an multiplicity of infection (MOI) of 5 or uninfected. Cells were washed twice, followed by 1 hour of antibiotic treatment with 200 μg/ml of amikacin to remove extracellular bacteria. After the antibiotic step, cells were washed once more and BisEDT (BIZ) or amikacin was added once to selected wells (see in vitro doses below).
(§2) The treatments included: vehicle, amikacin, Soluble BisEDT (S Biz), Insoluble BisEDT (I Biz), and amikacin+BisEDT. The time points for sample preparation were 72 h for M. abscessus strains and 4- and 7-days post infection for M. avium strains. At the indicated timepoints cell media was removed and replaced with 400 ul of 0.1% triton x-100 in H2O for lysis. Wells were pipetted 25 times to disrupt cells then diluted and plated for CFU enumeration.

[4] = system: M. abscessus strain 19977 in THP-1 macrophages; assay: as above; type: cell-based; details: after 3 days, drugs at MIC
Procedure: as §1, §2

[5] = system: M. abscessus cystic fibrosis patient strain 01715 in THP-1 macrophages; assay: as above; type: cell-based; details: CF patient strain 01715; after 3 days; drugs at MIC
Procedure: as §1, §2

[6] = system: M. abscessus cystic fibrosis patient strain 00703 in THP-1 macrophages; assay: as above; type: cell-based; details: CF patient strain 00703; after 3 days; drugs at MIC
Procedure: as §1, §2

[7] = system: M. abscessus strain 19977; assay: Chronic M. abscessus lung infection in SCID/Beige mice, inhalation treatment 28 days; type: in vivo; details: for CFU count in lung homogenates, effect in words: inhaled
Procedure: A total of sixty female SCID/Beige mice between 6-8 weeks of age were used. Mice were placed up to 4 animals per cage and allowed 1 week of acclimation prior to infection.
Inoculums of M. abscessus strain 19977 (MAB) used in this study were made from highly virulent frozen stocks with low passage numbers. Bacteria were allowed to grow to log phase after 4 days on 7H10 media agar plates at 37° C. Once confluent, inoculums were made by suspending bacteria at 10^9 in Hank's balanced salt solution (HBSS) as determined by optical density (O.D.) and further quantified by serial dilution to determine the CFU/mL of suspension. At this higher concentration of bacteria, only 20 μL of inoculum was necessary to deposit […] bacteria per mouse.
On the day of infection mice were anesthetized with isoflurane by the drop jar method. Mice were scruffed in a standard one-handed grip and the nose of the mouse is held of a tube containing gauze containing a small amount of isoflurane. Mice were monitored for breathing and once rapid breaths have slowed down initially the mouse is removed from direct anesthesia and 20 μL of bacterial suspension was deposited on the left nostril. The mice then slowly breath in the droplet. Each mouse was then held in hand until complete consciousness was obtained and then the mouse was replaced into its home cage. After infection was initiated, 3 weeks were allowed to pass in order to allow the bacteria to establish a chronic lung pathology for eventual treatment.
After establishing each infection, 12 mice were euthanized the day before treatment began to determine the baseline bacterial load. Mice were euthanized using CO2 in accordance with the recommendations of the Guide for the Care and Use of Laboratory Animals (NRC 2011). Lungs and spleens were collected and homogenized then serial diluted for CFU enumeration.
A nose-only inhalation exposure chamber from CH technologies was used for this experiment. Mice were split into four treatment groups, Vehicle (buffer containing no BisEDT), amikacin (100 μg/kg/day), BisEDT “low” (200 μg/kg/day), and BisEDT “high” (1000 μg/kg/day). Each treatment group consisted of 12 mice. Ten of these mice were used for CFU determination and two mice are used for histology/pathology/lung pharmacokinetics. Treatment was conducted 6 days a week over the course of 28 days total. To create the correct level of deposited dose of each drug tested, 10 mL of test article were made. Amikacin in HBSS at 20 mg/mL was made and stored at 4° C. until needed. […]
After 28 days of treatment with BisEDT, animals were euthanized by Co2 and secondary cardiac puncture to collect whole blood for quantitation of BisEDT concentration. […] CFUs were determined after serial dilution. […]

[8] = system: M. abscessus strains in THP-1 macrophages; assay: Infected THP-1 macrophages, summary over strains; type: cell-based; details: 3 days post-treatment
Procedure: as §1, §2

[9] = system: three clinical isolates of M. avium in macrophages; assay: Infected THP-1 macrophages, summary over strains; type: cell-based; details: three clinical isolates of M. avium incl. amikacin-resistant isolate
Procedure: as §1, §2

[10] = Earlier 28-day tolerability work on rats; details: 28 days, doses as high as
[11] = system: M. abscessus in THP-1 macrophages; assay: TEM of infected THP-1 macrophages (mechanism of action); type: cell-based; details: 4 μg/ml insoluble BisEDT; 24 h and 48 h
Procedure: (§3) THP-1 macrophages were differentiated with 50 ng/ml PMA for 24 hours, followed by 24 hours in media prior to infection. Differentiated THP-1 macrophages were infected with M. avium or M. abscessus for 1 hour with a multiplicity of infection (MOI) of 10. Infected cells were washed twice, followed by 1 hour of antibiotic treatment with 200 μg/ml of amikacin to remove extracellular bacteria. After the antibiotic step, cells were washed once more and 4 μg/ml insoluble BisEDT (BIZ) was added to selected wells. The treatments included: (1) untreated, (2) untreated+infected with MAH 104, (3) untreated+infected with M. abscessus, (4) BIZ treated, (5) BIZ treated+infected with MAH 104, and (6) BIZ treated+infected with M. abscessus. The time points for sample preparation were 24 h and 48 h.p.i. Cells were not washed prior to transmission electron microscopy TEM sample preparation, to preserve any extracellular bacteria that may have been present. Cells were detached by treatment with 5 mM EDTA for […], quenched with 1×HBSS, and suspended in fixative buffer with 2.5% glutaraldehyde, 1% formaldehyde, and 0.1 M sodium cacodylate for 24 hours prior to submission to the electron microscopy facility for processing. Samples were sectioned, dehydrated, and visualized by a FEIT Titan 80-200 TEM/STEM microscope.

[12] = system: M. avium (MAH 104) in THP-1 macrophages; assay: as above; type: cell-based; details: 4 μg/ml insoluble BisEDT; 24 h and 48 h
Procedure: as §3

Question: With `C1C[S][Bi]([S]CC[S][Bi]2[S]CC[S]2)[S]1` [BisEDT, bismuth-1,2-ethanedithiol] as the molecule, how does the “MIC of select isolates, in words” value [1] read?
Answer: The value was “did not show a change in resistance”.

Question: What about the “development of resistance, in words” value [2] of the same molecule?
Answer: The value was “little development of resistance”.

Question: What about the “mycobacterial survival (CFU) in THP-1 macrophages, in words” value [3] of the same molecule?
Answer: Its value is “bacteriostatic effect”.

Question: What about the “mycobacterial survival (CFU, bacterial load) in THP-1 macrophages, in words” value [4] of the same molecule?
Answer: The value was “reduced bacterial loads in THP-1 cells”.

Question: And the “mycobacterial survival (CFU, bacterial load) in THP-1 macrophages, in words” value [5]?
Answer: Its value is “greatly reduced bacterial load in macrophages”.

Question: And the “mycobacterial survival (CFU, bacterial load) in THP-1 macrophages, in words” value [6]?
Answer: The value was “greatly reduced bacterial load in macrophages”.

Question: And the “lung CFU response, in words” value ([7]; 200 and 1000 μg/kg/day inhaled)?
Answer: Its value is “dose-dependent response”.

Question: And the “tolerability in infected mice” value ([7]; 200 and 1000 μg/kg/day inhaled, mice responsive, normal weight range)?
Answer: Its value is “well tolerated”.

Question: And the “CFU count in lung homogenates, effect in words” value ([7]; BisEDT high, 1000 μg/kg)?
Answer: The value was “bactericidal”.

Question: And the “CFU count in lung homogenates, effect in words” value ([7]; BisEDT low, 200 μg/kg)?
Answer: The value was “bacteriostatic effect”.

Question: What about the “effect in infected macrophages, in words” value [8] of the same molecule?
Answer: The value was “bactericidal by itself”.

Question: And the “effect in infected macrophages, in words” value [9]?
Answer: The value was “bactericidal”.

Question: And the “dose with high tolerability, without adverse effects” value [10]?
Answer: Its value is 59 µg/kg/day.

Question: What about the “TEM observation on mycobacteria cell wall” value [11] of the same molecule?
Answer: The value was “loss of the integrity of the polar region initially, and the whole cell wall in a more advanced stage”.

Question: And the “TEM observation on mycobacteria cell wall” value [12]?
Answer: Its value is “loss of the integrity of the polar region initially, and the whole cell wall in a more advanced stage”.

Reference: patent publication US20250090576A1, “METHODS FOR TREATING NONTUBERCULOUS MYCOBACTERIA DISEASES” (Microbion Corporation, priority 2022, published 2025)
